Experiments:
[1] = target: T1, Muscarinic acetylcholine receptor M4 (Homo sapiens, UniProt P08173)
T1 sequence (P08173 whole entry): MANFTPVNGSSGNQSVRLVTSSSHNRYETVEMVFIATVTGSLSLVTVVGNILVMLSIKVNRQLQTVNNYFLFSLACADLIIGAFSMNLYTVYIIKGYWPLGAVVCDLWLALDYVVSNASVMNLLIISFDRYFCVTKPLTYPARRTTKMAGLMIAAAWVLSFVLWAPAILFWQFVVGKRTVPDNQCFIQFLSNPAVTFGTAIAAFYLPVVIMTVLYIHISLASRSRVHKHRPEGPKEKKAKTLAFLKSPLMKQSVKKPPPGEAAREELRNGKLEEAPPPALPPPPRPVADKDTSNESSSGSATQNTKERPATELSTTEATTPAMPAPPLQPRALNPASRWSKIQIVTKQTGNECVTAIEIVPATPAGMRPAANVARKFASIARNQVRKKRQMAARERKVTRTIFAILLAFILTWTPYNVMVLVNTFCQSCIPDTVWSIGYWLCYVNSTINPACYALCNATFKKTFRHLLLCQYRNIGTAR

D(1B) dopamine receptor = D(1B) dopamine receptor (Homo sapiens, UniProt P21918)
[2] = target: Rod cGMP-specific 3',5'-cyclic phosphodiesterase subunit alpha (Homo sapiens, UniProt P16499); type: functional
[3] = target: T2, Type-1 angiotensin II receptor (Homo sapiens, UniProt P30556)
T2 sequence (P30556 whole entry): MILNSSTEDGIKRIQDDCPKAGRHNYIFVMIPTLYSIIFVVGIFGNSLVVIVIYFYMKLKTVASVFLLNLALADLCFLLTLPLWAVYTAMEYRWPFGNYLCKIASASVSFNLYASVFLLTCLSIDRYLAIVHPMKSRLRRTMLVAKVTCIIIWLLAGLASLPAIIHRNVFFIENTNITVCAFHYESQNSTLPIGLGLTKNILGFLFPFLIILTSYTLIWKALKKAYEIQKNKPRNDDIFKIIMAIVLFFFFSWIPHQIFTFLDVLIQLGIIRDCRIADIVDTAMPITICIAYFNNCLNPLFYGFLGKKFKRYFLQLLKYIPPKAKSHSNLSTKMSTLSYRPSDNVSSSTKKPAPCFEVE

[4] = target: T3, Type-2 angiotensin II receptor (Homo sapiens, UniProt P50052); type: functional
T3 sequence (P50052 whole entry): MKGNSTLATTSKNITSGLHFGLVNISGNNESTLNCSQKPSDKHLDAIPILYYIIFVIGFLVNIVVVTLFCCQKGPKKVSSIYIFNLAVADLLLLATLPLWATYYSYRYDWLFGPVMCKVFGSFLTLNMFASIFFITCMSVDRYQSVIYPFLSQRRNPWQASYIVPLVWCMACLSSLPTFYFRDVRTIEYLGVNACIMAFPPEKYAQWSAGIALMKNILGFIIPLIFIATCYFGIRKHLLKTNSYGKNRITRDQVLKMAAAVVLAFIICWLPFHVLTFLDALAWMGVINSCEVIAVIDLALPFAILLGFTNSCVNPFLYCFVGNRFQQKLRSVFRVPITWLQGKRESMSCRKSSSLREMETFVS

Estrogen receptor [5] = target: T4, Estrogen receptor (Homo sapiens, UniProt P03372); type: functional
T4 sequence (P03372 whole entry): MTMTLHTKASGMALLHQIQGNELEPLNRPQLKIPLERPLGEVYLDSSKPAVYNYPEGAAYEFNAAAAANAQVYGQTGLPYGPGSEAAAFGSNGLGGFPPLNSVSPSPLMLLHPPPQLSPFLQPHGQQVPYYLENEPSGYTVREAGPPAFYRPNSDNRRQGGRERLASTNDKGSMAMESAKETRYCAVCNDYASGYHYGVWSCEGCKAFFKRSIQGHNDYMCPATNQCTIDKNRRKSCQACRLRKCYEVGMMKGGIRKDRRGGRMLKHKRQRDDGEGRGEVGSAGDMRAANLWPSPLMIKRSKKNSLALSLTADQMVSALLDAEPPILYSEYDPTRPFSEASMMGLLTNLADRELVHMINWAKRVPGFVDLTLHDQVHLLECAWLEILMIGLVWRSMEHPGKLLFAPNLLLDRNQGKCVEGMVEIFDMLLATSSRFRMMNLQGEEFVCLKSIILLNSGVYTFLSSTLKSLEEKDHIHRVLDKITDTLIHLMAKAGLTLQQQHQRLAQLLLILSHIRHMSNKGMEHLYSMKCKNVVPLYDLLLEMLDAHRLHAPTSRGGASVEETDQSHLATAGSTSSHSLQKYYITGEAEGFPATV

Estrogen receptor [6] = target: T4, Estrogen receptor; type: functional; remark: listed apart in the source
Glucocorticoid receptor = target: T5, Glucocorticoid receptor (Homo sapiens, UniProt P04150); type: functional
T5 sequence (P04150 whole entry): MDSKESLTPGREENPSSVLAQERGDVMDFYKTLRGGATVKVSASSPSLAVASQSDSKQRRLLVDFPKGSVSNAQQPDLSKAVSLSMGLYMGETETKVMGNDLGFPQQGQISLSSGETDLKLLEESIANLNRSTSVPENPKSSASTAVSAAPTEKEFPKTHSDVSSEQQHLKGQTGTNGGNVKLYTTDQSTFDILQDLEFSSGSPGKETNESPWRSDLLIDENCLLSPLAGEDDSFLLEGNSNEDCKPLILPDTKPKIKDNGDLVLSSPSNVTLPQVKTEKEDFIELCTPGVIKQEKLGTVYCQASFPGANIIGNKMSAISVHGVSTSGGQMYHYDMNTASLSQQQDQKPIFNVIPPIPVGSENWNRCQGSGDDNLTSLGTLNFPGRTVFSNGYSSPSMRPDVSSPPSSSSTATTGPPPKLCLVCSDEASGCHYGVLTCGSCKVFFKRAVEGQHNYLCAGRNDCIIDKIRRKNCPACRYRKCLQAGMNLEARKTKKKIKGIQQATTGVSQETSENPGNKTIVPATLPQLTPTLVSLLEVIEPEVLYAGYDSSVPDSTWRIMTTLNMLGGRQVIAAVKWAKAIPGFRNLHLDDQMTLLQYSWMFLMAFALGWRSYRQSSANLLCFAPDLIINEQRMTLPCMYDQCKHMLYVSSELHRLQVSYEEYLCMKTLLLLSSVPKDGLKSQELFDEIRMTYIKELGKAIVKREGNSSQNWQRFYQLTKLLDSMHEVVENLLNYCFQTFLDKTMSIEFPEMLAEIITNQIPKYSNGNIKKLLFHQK

[7] = target: Hydroxycarboxylic acid receptor 2 (Homo sapiens, UniProt Q8TDS4)
Also: assay procedure not described here.

Hydroxycarboxylic acid receptor 2, sequence (Q8TDS4 whole entry): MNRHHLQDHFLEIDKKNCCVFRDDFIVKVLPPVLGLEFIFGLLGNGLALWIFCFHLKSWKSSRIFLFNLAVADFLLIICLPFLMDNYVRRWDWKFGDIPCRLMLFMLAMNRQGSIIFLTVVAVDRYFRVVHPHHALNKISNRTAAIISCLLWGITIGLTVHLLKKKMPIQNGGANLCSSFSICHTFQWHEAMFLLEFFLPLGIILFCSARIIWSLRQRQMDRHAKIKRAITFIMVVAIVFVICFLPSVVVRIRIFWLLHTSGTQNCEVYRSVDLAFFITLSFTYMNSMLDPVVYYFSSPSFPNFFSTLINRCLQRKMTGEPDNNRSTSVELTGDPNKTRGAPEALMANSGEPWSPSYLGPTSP
D(1B) dopamine receptor, sequence (P21918 whole entry): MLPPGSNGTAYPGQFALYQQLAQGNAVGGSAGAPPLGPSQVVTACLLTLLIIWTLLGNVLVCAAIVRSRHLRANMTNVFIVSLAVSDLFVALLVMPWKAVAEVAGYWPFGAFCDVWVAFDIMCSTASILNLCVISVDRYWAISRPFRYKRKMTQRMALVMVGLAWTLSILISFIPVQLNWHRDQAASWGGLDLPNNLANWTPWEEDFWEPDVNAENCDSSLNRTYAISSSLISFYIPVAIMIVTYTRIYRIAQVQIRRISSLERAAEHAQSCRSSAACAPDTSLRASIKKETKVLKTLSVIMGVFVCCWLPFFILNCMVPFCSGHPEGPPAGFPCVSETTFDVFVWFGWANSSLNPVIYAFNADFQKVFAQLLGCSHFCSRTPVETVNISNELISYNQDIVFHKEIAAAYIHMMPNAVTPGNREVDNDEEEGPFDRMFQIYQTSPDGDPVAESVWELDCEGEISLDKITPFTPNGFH
Rod cGMP-specific 3',5'-cyclic phosphodiesterase subunit alpha, sequence (P16499 whole entry): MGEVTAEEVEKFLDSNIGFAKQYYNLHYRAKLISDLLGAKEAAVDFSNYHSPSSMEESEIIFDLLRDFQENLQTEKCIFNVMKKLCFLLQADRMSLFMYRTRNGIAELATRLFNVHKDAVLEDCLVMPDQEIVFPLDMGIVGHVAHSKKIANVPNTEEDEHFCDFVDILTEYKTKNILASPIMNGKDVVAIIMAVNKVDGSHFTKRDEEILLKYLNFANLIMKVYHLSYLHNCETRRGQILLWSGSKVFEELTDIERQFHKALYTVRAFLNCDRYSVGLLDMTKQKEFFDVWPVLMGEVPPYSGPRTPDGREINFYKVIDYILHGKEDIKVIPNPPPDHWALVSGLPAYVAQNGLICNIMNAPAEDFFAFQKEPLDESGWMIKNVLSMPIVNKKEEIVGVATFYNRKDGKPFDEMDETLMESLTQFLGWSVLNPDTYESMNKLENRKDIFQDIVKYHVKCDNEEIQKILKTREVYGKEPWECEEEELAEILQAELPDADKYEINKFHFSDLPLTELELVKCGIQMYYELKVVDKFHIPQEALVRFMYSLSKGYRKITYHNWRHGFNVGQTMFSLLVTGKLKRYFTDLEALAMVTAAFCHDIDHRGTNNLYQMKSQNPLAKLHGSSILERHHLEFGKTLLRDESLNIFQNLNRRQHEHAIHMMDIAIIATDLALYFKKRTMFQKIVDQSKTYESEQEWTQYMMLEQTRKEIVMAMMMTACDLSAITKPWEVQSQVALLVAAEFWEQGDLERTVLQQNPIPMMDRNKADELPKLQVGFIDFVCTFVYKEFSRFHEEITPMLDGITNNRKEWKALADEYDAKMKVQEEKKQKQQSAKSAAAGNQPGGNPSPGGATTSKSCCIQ

SMILES: CCCCc1ncc(/C=C(\Cc2cccs2)C(=O)O)n1Cc1ccc(C(=O)O)cc1 [EPROSARTAN]
- AC50 [1]: > 10 µM
- AC50 (D(1B) dopamine receptor): > 10 µM
- AC50 [2]: > 10 µM
- AC50 [3]: 0.0042 µM
- AC50 [4]: > 100 µM

SMILES: C/C(O)=C(\C#N)C(=O)Nc1ccc(C(F)(F)F)cc1 [TERIFLUNOMIDE]
- AC50 (Estrogen receptor [5]): > 30 µM
- AC50 (Estrogen receptor [6]): > 30 µM
- AC50 (Glucocorticoid receptor): > 10 µM

SMILES: CCCN(CCC)C(=O)C(CCC(=O)O)NC(=O)c1ccccc1 (stereo not drawn) [PROGLUMIDE]
- AC50 [7]: > 10 µM

SMILES: N#Cc1ccc([C@H]2CCc3cncn32)c(F)c1 [OSILODROSTAT]
- AC50 [1]: > 10 µM
- AC50 (D(1B) dopamine receptor): > 10 µM
- AC50 [2]: > 10 µM

SMILES: CCCc1nc(C(C)(C)O)c(C(=O)OCc2oc(=O)oc2C)n1Cc1ccc(-c2ccccc2-c2nnn[nH]2)cc1 [OLMESARTAN MEDOXOMIL]
- AC50 [3]: 0.0017 µM
- AC50 [4]: 74.3 µM

SMILES: CC(=O)O[C@H]1CC[C@@]2(C)C(=CC[C@@H]3[C@@H]2CC[C@]2(C)C(c4cccnc4)=CC[C@@H]32)C1 [ABIRATERONE ACETATE]
- AC50 (Estrogen receptor [5]): > 30 µM
- AC50 (Estrogen receptor [6]): > 30 µM
- AC50 (Glucocorticoid receptor): > 30 µM

SMILES: CN1C(=O)C(O)N=C(c2ccccc2)c2cc(Cl)ccc21 (stereo not drawn) [TEMAZEPAM]
- AC50 [7]: > 10 µM
